Literature values in US6461650B1, “Preparation for supplementing a beverage and method for enriching a beverage in calcium and magnesium” (Institut National de la Recherche Agronomique, priority 1998, dated 2002).

System: rats
Details: incorporated in the diet

## inulin
  digestive assimilation of calcium and magnesium: increase the digestive assimilation of calcium and magnesium
